Experiment [1] deals with c-Myc (DNA, G4) TGAGGGTGGGTAGGGTGGGTAA
Briefly: fluorescence lifetime displacement assay (TCSPC). As to conditions: 100 mM KCl (K+), 10 mM lithium cacodylate (Li+), pH 7.3, 2 µM DAOTA-M2 displaced, 4 µM c-Myc.

Experiment [2] concerns ds26 (DNA, duplex) CAATCGGATCGAATTCGATCCGATTG
Briefly: fluorescence lifetime (TCSPC). As to conditions: 100 mM KCl (K+), 10 mM lithium cacodylate (Li+) (buffer part); Xenopus egg extract 33 µL + 12 µL buffer; 2 µM DAOTA-M2, 44 µM ds26; 21 °C; lifetime 6.1 ns.

In experiment [3] the test system is c-Myc (DNA, G4) TGAGGGTGGGTAGGGTGGGTAA
Description: fluorescence lifetime (TCSPC). As to conditions: 100 mM KCl (K+), 10 mM lithium cacodylate (Li+); pH 7.3; 2 µM DAOTA-M2, 4 µM c-Myc, 20 µM CT-DNA present; lifetime 6.1 to 11.7 ns.

Data on seven compounds can be found in PMC7794231 (2021).

Take `N=C(N)c1ccc(-c2cc3ccc(C(=N)N)cc3[nH]2)cc1`: the binding entry in experiment [1] (20 µM CT-DNA present, small lifetime drop) is on record as “no”.

Regarding `NCCOc1cc(C(=O)Nc2cc(OCCN)c3ccccc3n2)nc(C(=O)Nc2cc(OCCN)c3ccccc3n2)c1`, the binding result in experiment [1] (20 µM CT-DNA present, PDS to 14.4 µM) is on record as “yes”.

Regarding `[Cu+2].[O-]c1cc(OCCN2CCCCC2)ccc1/C=N/c1ccccc1/N=C/c1ccc(OCCN2CCCCC2)cc1[O-]`, the binding result in experiment [1] was “yes”.

With `[Ni+2].[O-]c1cc(OCCN2CCCCC2)ccc1/C=N/c1ccccc1/N=C/c1ccc(OCCN2CCCCC2)cc1[O-]`, the binding entry in experiment [1] was “yes”.

Consider `[O-2].[O-]c1cc(OCCN2CCCCC2)ccc1/C=N/c1ccccc1/N=C/c1ccc(OCCN2CCCCC2)cc1[O-].[V+4]`, for which the binding result in experiment [1] is “yes”.

Consider `[O-]c1cc(OCCN2CCCCC2)ccc1/C=N/c1ccccc1/N=C/c1ccc(OCCN2CCCCC2)cc1[O-].[Zn+2]`, for which the binding result in experiment [1] is given as “weak”.

`c1cc2oc3cccc4c3[c+]3c2c(c1)n(CCN1CCOCC1)c1cccc(c13)n4CCN1CCOCC1`: the binding result in experiment [2] and in experiment [3] was “yes” each time.
